Source: patent publication US20150105252A1, “SUBSTITUTED PYRAZOLES AS HERBICIDES” (E I DU PONT DE NEMOURS AND COMPANY, priority 2013, published 2015)

Assays:
barley = assay: Test C postemergence; format: in vivo, Hordeum vulgare; details: scale 0 to 100
Russian thistle = assay: Test D preemergence; format: in vivo, Salsola kali; details: for Plant response rating (scale 0 to 100), Russian Thistle: 16 g ai/ha, taken as preemergence; for Plant response rating, Russian Thistle: Preemergence, scale 0 to 100
Description: Seeds of plant species selected from bluegrass (annual bluegrass, Poa annua), blackgrass (Alopecurus myosuroides), canarygrass (littleseed canarygrass, Phalaris minor), chickweed (common chickweed, Stellaria media), galium (catchweed bedstraw, Galium aparine), bromegrass, downy (downy bromegrass, Bromus tectorum), field poppy (Papaver rhoeas), field violet (Viola arvensis), foxtail, green (green foxtail, Setaria viridis), deadnettle (henbit deadnettle, Lamium amplexicaule), ryegrass, Italian (Italian ryegrass, Lolium multiflorum), kochia (Kochia scoparia), lambsquarters (Chenopodium album), oilseed rape (Brassica napus), pigweed (redroot pigweed, Amaranthus retroflexus), chamomile (scentless chamomile, Matricaria inodora), speedwell (bird's-eye speedwell, Veronica persica), barley, spring (spring barley, Hordeum vulgare), wheat, spring (spring wheat, Triticum aestivum), buckwheat, wild (wild buckwheat, Polygonum convolvulus), mustard, wild (wild mustard, Sinapis arvensis), oat, wild (wild oat, Avena fatua), radish, wild (wild radish, Raphanus raphanistrum), windgrass (Apera spica-venti), Russian thistle (Salsola kali), barley, winter (winter barley, Hordeum vulgare), and wheat, winter (winter wheat, Triticum aestivum) were planted into a silt loam soil and treated preemergence with test chemicals formulated in a non-phytotoxic solvent mixture which included a surfactant.
At the same time, these species were planted in pots containing Redi-Earth® planting medium (Scotts Company, 14111 Scottslawn Road, Marysville, Ohio 43041) comprising spaghnum peat moss, vermiculite, wetting agent and starter nutrients and treated with postemergence applications of the test chemicals formulated in the same manner. Plants ranged in height from 2 to 18 cm (1- to 4-leaf stage). Treated plants and controls were maintained in a controlled growth environment for 14 to 21 days after which time all species were compared to controls and visually evaluated. Plant response ratings, summarized in Table D, are based on a scale of 0 to 100 where 0 is no effect and 100 is complete control. A dash (-) response means no test result.

Surinam grass = assay: Test C postemergence; format: in vivo, Brachiaria decumbens; details: for Surinam Grass plant response rating: 62 g ai/ha, scale 0 to 100
Description: Seeds of plant species selected from blackgrass (Alopecurus myosuroides), ryegrass, Italian (Italian ryegrass, Lolium multiflorum), wheat (winter wheat, Triticum aestivum), galium (catchweed bedstraw, Galium aparine), corn (Zea mays), crabgrass, large (large crabgrass, Digitaria sanguinalis), foxtail, giant (giant foxtail, Setaria faberii), johnsongrass (Sorghum halepense), lambsquarters (Chenopodium album), morningglory (Ipomoea coccinea), nutsedge, yellow (yellow nutsedge, Cyperus esculentus), pigweed (redroot pigweed, Amaranthus retroflexus), ragweed (common ragweed, Ambrosia elation), soybean (Glycine max), barnyardgrass (Echinochloa crus-galli), oilseed rape (Brassica napus), waterhemp (common waterhemp, Amaranthus rudis), oat, wild (wild oat, Avena fatua), kochia (Kochia scoparia), Surinam grass (Brachiaria decumbens), foxtail, green (green foxtail, Setaria viridis), goosegrass (Eleusine indica), bromegrass, downy (downy bromegrass, Bromus tectorum), nightshade (eastern black nightshade, Solanum ptycanthum), cocklebur (common cocklebur, Xanthium strumarium), cupgrass, woolly (woolly cupgrass, Eriochloa villosa), bermudagrass (Cynodon dactylon), sunflower, (common oilseed sunflower, Helianthus annuus), Russian thistle (Salsola kali), and velvetleaf (Abutilon theophrasti) were planted into a blend of loam soil and sand and treated preemergence with test chemicals formulated in a non-phytotoxic solvent mixture which included a surfactant.
At the same time, plants selected from these crop and weed species and also chickweed (common chickweed, Stellaria media), canarygrass (littleseed canarygrass, Phalaris minor), and deadnettle (henbit deadnettle, Lamium amplexicaule), were planted in pots containing Redi-Earth® planting medium (Scotts Company, 14111 Scottslawn Road, Marysville, Ohio 43041) comprising spaghnum peat moss, vermiculite, wetting agent and starter nutrients and treated with postemergence applications of test chemicals formulated in the same manner. Plants ranged in height from 2 to 18 cm (1- to 4-leaf stage) for postemergence treatments. Treated plants and controls were maintained in a greenhouse for 13 to 15 days, after which time all species were compared to controls and visually evaluated. Plant response ratings, summarized in Table C, are based on a scale of 0 to 100 where 0 is no effect and 100 is complete control. A dash (-) response means no test result.

common ragweed = assay: Test A postemergence; format: in vivo, Ambrosia elation
In short: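 Pre- and postemergence greenhouse test; loam+sand; cpd in non-phytotox. solvent/surfactant; post at 1–2 leaf, 2–10 cm; visual score ~10 d, 0 = none, 100 = complete control.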

[1] = 125 g ai/ha, scale 0 to 100, 0 no effect, 100 complete control
[2] = 250 g ai/ha, scale 0 to 100 (0 no effect, 100 complete control)
[3] = Postemergence, 500 g ai/ha, 0 to 100 scale (0 no effect, 100 complete control)
[4] = postemergence, 125 g ai/ha, about 10 days, visual rating on 0 to 100 scale (0 no effect, 100 complete control)

SMILES | Barley plant response rating (barley; Postemergence, 31 g ai/ha) | Surinam Grass plant response rating (Surinam grass) | Plant response rating, Surinam Grass (Surinam grass; [1]) | Plant response rating, Surinam Grass (Surinam grass; [2]) | Common Ragweed plant response rating (common ragweed; [3]) | Common Ragweed plant response rating (common ragweed; [4]) | also measured
CCc1cc(C(=O)NOC(C)C)nn1Cc1cccc(OC(F)(F)F)c1 [Compound 70] | 0 | 10 | 20 | 30 |  |  | Plant response rating (scale 0 to 100), Russian Thistle (Russian thistle): 0; Plant response rating, Russian Thistle (Russian thistle; 31 g ai/ha): 0; Plant response rating, Russian Thistle (Russian thistle; 62 g ai/ha): 90; Plant response rating, Russian Thistle (Russian thistle; 125 g ai/ha): 90; Plant response rating, Russian Thistle (Russian thistle; 250 g ai/ha): 100
Cc1cc(C(=O)NCC(F)(F)F)nn1Cc1ccnc(C(F)(F)F)c1 [Compound 74] | 0 | 10 | 15 | 25 |  |  | Barley plant response rating (barley; postemergence, 62 g ai/ha): 0; Plant response rating, Russian Thistle (Russian thistle; 31 g ai/ha): 70; Plant response rating, Russian Thistle (Russian thistle; 62 g ai/ha): 85; Plant response rating, Russian Thistle (Russian thistle; 125 g ai/ha): 95
CCc1cc(C(=O)NC2CC2)nn1Cc1ccnc(C(F)(F)F)c1 [Compound 76] |  |  |  |  |  |  | Plant response rating (scale 0 to 100), Russian Thistle (Russian thistle): 50; Plant response rating, Russian Thistle (Russian thistle; 31 g ai/ha): 65; Plant response rating, Russian Thistle (Russian thistle; 62 g ai/ha): 70; Plant response rating, Russian Thistle (Russian thistle; 125 g ai/ha): 80; Plant response rating, Russian Thistle (Russian thistle; 250 g ai/ha): 95
CCCNC(=O)c1cc(OCC)n(Cc2ccnc(OC(F)F)c2)n1 [Compound 136] |  |  |  |  | 100 | 30 | 
CCCNC(=O)c1cc(CC)n(Cc2cccc(OC(F)(F)F)c2)n1 [Compound 27] | 10 | 5 | 10 | 10 |  |  | 
CCCc1cc(C(=O)NC2CC2)nn1Cc1ccnc(OC(F)F)c1 [Compound 205] |  |  |  |  | 90 | 80 | 
CCCc1cc(C(=O)NCC(F)(F)F)nn1Cc1ccnc(OC(F)F)c1 [Compound 127] |  |  |  |  | 80 | 30 | 
CCc1cc(C(=O)NOC(C)C)nn1Cc1ccnc(OC(F)F)c1 [Compound 126] |  |  |  |  | 80 | 80 | 
CCOc1cc(C(=O)NCC(F)(F)F)nn1Cc1ccnc(OC(F)F)c1 [Compound 128] |  |  |  |  | 70 | 30 | 
CCONC(=O)c1cc(CC)n(Cc2cccc(OC(F)(F)F)c2)n1 [Compound 72] | 0 | 10 | 10 | 15 |  |  | Barley plant response rating (barley; postemergence, 62 g ai/ha): 5
CCc1cc(C(=O)NCC(F)(F)F)nn1Cc1cccc(OC(F)(F)F)c1 [Compound 20] | 15 | 5 | 10 | 10 |  |  | 
